Laboratory results taken from patent US20070049564A1 (Wyeth, priority 2005, published 2007).
Read-outs that look alike come from different tables or passages of the source.

Key:
P. aeruginosa GC 2214 = assay: MIC, broth microdilution; details: Pseudomonas aeruginosa
E. faecalis GC 2242 = assay: MIC, broth microdilution; details: Enterococcus faecalis
E. coli GC 2272 = assay: MIC, broth microdilution; details: Escherichia coli
S. epidermidis GC 4935 = assay: MIC, broth microdilution; details: Staphylococcus epidermidis
S. aureus GC 6466 = assay: MIC, broth microdilution; details: Staphylococcus aureus
E. coli GC 2234 = assay: MIC, broth microdilution; details: Escherichia coli
Staph. aureus Smith = assay: In vivo activity (oral, iv; ED50) against Staph. aureus Smith in mice
Procedure: Representative examples of compounds of Formula I were tested for the oral efficacy using S. aureus Smith in mice.

E. faecalis GC 2267 = assay: MIC, broth microdilution; details: Enterococcus faecalis
E. coli GC 2203 = assay: MIC, broth microdilution; details: Escherichia coli
S. pneumoniae+ GC 4465 = assay: MIC, broth microdilution; details: Streptococcus pneumoniae
S. aureus GC 2216 = assay: MIC, broth microdilution; details: Staphylococcus aureus
S. aureus GC 4536 = assay: MIC, broth microdilution; details: Staphylococcus aureus
Procedure: (§1) Antimicrobial susceptibility testing. The in vitro activities of the antibiotics are determined by the broth microdilution method as recommended by the National Committee for Clinical Laboratory Standards (NCCLS) (1). Mueller-Hinton II broth (MHBII)(BBL Cockeysville, Md.) is the medium employed in the testing procedures. Microtiter plates containing serial dilutions of each antimicrobial agent are inoculated with each organism to yield the appropriate density (10^5 CFU/ml) in a 100 μl final volume. The plates are incubated for 18-22 hours at 35° C. in ambient air.
Representative compounds were first incubated in mouse serum for an hour prior to the in vitro testing against a panel of selected gram-positive and gram-negative bacteria strains. All compounds were also pre-incubated in water for an hour prior to testing as control. Representative compounds of Formula I were incubated in human serum prior to MIC determination.

E. coli GC 4559 = assay: MIC, broth microdilution; details: Escherichia coli
E. coli GC 2232 = assay: MIC, broth microdilution; details: Escherichia coli
S. pneumoniae* GC 4465 = assay: MIC, broth microdilution; details: Streptococcus pneumoniae
E. coli GC 4560 = assay: MIC, broth microdilution; details: Escherichia coli
E. coli GC 6465 = assay: MIC, broth microdilution; details: Escherichia coli
S. aureus GC 6467 = assay: MIC, broth microdilution; details: Staphylococcus aureus
E. coli GC 2231 = assay: MIC, broth microdilution; details: Escherichia coli
S. aureus GC 1131 = assay: MIC, broth microdilution; details: Staphylococcus aureus
Procedure: as §1
Representative compounds were first incubated in mouse serum for an hour prior to the in vitro testing against a panel of selected gram-positive and gram-negative bacteria strains. All compounds were also pre-incubated in water for an hour prior to testing as control.

CCCN(CC(=O)Nc1cc(N(C)C)c2c(c1O)C(=O)C1=C(O)[C@]3(O)C(=O)C(C(N)=O)=C(O)C(N(C)C)C3CC1C2)C(=O)OCc1oc(=O)oc1-c1ccccc1 (stereo in doubt) [Example 110, (2-oxo-5-phenyl-1,3-dioxol-4-yl)methyl 2-{[(7R,10aS)-9-(aminocarbonyl)-4,7-bis(dimethylamino)-1,8,10a,11-tetrahydroxy-10,12-dioxo-5,5a,6,6a,7,10,10a,12-octahydrotetracen-2-yl]amino}-2-oxoethyl(propyl)carbamate]
> 64 µg/mL: MIC (P. aeruginosa GC 2214; GC2214, pre-incubation in mouse serum) | MIC (P. aeruginosa GC 2214; GC2214, pre-incubation in water) | MIC (E. coli GC 6465; GC6465, pre-incubation in water) | MIC (S. aureus GC 6467; GC6467, pre-incubation in water)
1 µg/mL: MIC (E. faecalis GC 2242; GC2242, pre-incubation in mouse serum) | MIC (E. faecalis GC 2242; GC2242, pre-incubation in water) | MIC (E. coli GC 2272; GC2272, pre-incubation in mouse serum) | MIC (E. coli GC 2272; GC2272, pre-incubation in water) | MIC (S. aureus GC 6466; GC6466, pre-incubation in mouse serum) | MIC (E. coli GC 2234; GC2234, pre-incubation in mouse serum) | MIC (E. coli GC 2203; GC2203, pre-incubation in mouse serum) | MIC (E. coli GC 2232; GC2232, pre-incubation in mouse serum)
64 µg/mL: MIC (E. coli GC 6465; GC6465, pre-incubation in mouse serum)
2 µg/mL: MIC (S. aureus GC 6466; GC6466, pre-incubation in water) | MIC (E. coli GC 2234; GC2234, pre-incubation in water) | MIC (S. pneumoniae+ GC 4465; pre-incubation in water) | MIC (S. aureus GC 2216; GC2216, pre-incubation in mouse serum) | MIC (E. coli GC 4559; GC4559, pre-incubation in mouse serum) | MIC (E. coli GC 4559; GC4559, pre-incubation in water) | MIC (E. coli GC 2232; GC2232, pre-incubation in water) | MIC (S. aureus GC 1131; GC1131, pre-incubation in mouse serum)
0.12 µg/mL: MIC (S. pneumoniae* GC 4465; pre-incubation in water)
4 µg/mL: MIC (S. epidermidis GC 4935; GC4935, pre-incubation in mouse serum) | MIC (E. faecalis GC 2267; GC2267, pre-incubation in water) | MIC (E. coli GC 2203; GC2203, pre-incubation in water) | MIC (S. pneumoniae+ GC 4465; pre-incubation in mouse serum) | MIC (S. aureus GC 2216; GC2216, pre-incubation in water) | MIC (S. aureus GC 4536; GC4536, pre-incubation in mouse serum) | MIC (S. aureus GC 4536; GC4536, pre-incubation in water) | MIC (E. coli GC 2231; GC2231, pre-incubation in mouse serum) | MIC (S. aureus GC 1131; GC1131, pre-incubation in water)
0.5 µg/mL: MIC (E. coli GC 4560; GC4560, pre-incubation in water)
0.6 mg/kg: ED50 (Staph. aureus Smith; iv, read-out: ED50 Staph Smith SIV)
8 µg/mL: MIC (S. epidermidis GC 4935; GC4935, pre-incubation in water) | MIC (E. faecalis GC 2267; GC2267, pre-incubation in mouse serum) | MIC (E. coli GC 2231; GC2231, pre-incubation in water)
31.9 mg/kg: ED50 (Staph. aureus Smith; Staphylococcus aureus, in Mus musculus, po, read-out: ED50 Staph Smith SOD)
0.25 µg/mL: MIC (S. pneumoniae* GC 4465; pre-incubation in mouse serum) | MIC (E. coli GC 4560; GC4560, pre-incubation in mouse serum)
32 µg/mL: MIC (S. aureus GC 6467; GC6467, pre-incubation in mouse serum)
